Results published in patent publication US11479539B2, “Small molecule modulators of the BTB domain of Keap1” (MedImmune Limited, priority 2017, dated 2022).

Target: Keap1 (Homo sapiens (Human), UniProt Q14145)
Experiment: HEK293 ARE luciferase assay
Format: cell-based
Details: HEK-293 ARE firefly luciferase transiently transfected cells; 18 h incubation; mean of 1 to 20 individual measurements
In short: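 Keap1 inhibition read as Nrf2-driven luciferase rise: compounds dosed in 10 points up to 100 μM (0.3% DMSO) on HEK-293 ARE luciferase cells, 10,000/well, 18 h at 37 °C, then SteadyGlo luminescence. Scaled between DMSO vehicle and 30 μM tBHQ; values average 1-20 runs.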

Keap1, sequence (Q14145 whole entry): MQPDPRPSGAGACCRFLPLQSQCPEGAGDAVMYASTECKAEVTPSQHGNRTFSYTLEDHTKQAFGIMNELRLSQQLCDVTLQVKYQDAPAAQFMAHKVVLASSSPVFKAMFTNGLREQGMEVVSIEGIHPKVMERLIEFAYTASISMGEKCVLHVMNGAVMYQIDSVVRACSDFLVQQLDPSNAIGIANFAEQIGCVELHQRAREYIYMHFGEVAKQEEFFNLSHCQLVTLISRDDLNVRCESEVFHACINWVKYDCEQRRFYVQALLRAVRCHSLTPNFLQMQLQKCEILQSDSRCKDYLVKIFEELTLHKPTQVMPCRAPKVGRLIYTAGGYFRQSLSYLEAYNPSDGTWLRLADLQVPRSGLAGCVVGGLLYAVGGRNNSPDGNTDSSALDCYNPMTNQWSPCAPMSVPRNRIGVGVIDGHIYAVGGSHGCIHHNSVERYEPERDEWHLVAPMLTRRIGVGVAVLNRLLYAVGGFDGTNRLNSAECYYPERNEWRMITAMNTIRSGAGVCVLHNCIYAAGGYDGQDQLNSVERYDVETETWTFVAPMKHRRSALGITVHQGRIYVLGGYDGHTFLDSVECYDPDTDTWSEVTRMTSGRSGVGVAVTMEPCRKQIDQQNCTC

| Compound | EC50 [µM] |
| --- | --- |
| COC1(c2cccnc2-c2cnn(C)c2)C=C(C#N)C(=O)C(C)(C)C1 (stereo not drawn) [Compound 25, 3-methoxy-5,5-dimethyl-3-[2-(1-methylpyrazol-4-yl)-3-pyridyl]-6-oxo-cyclohexene-1-carbonitrile] | 0.07 |
| COC1(c2ncc(F)cc2F)C=C(C#N)C(=O)C(C)(C)C1 (stereo not drawn) [Compound 28, 3-(3,5-difluoropyridin-2-yl)-3-methoxy-5,5-dimethyl-6-oxocyclohex-1-enecarbonitrile] | 0.036 |
| CO[C@]1(c2ncsc2C)C=C(C#N)C(=O)C(C)(C)C1 [Compound 38, (S)-3-methoxy-5,5-dimethyl-3-(5-methylthiazol-4-yl)-6-oxocyclohex-1-enecarbonitrile] | 0.132 |
| CO[C@]1(c2ncc(F)cc2C(F)F)C=C(C#N)C(=O)C(C)(C)C1 [Compound 42, (3S)-3-[3-(difluoromethyl)-5-fluoropyridin-2-yl]-3-methoxy-5,5-dimethyl-6-oxocyclohex-1-ene-1-carbonitrile] | 0.033 |
| COC1(c2ncc(C)s2)C=C(C#N)C(=O)C2(CC2)C1 (stereo not drawn) [Compound 64, 7-methoxy-7-(5-methyl-1,3-thiazol-2-yl)-4-oxospiro[2.5]oct-5-ene-5-carbonitrile] | 0.145 |
| COC1(c2ccc(Cl)cn2)C=C(C#N)C(=O)C2(CC2)C1 (stereo not drawn) [Compound 65, 7-(5-chloropyridin-2-yl)-7-methoxy-4-oxospiro[2.5]oct-5-ene-5-carbonitrile] | 0.247 |
| CO[C@]1(c2ncc(F)cc2-c2ccc(=O)n(C)c2)C=C(C#N)C(=O)C(C)(C)C1 [Compound 74, (S)-3-[5-fluoro-3-(1-methyl-6-oxo-3-pyridyl)-2-pyridyl]-3-methoxy-5,5-dimethyl-6-oxo-cyclohexene-1-carbonitrile] | 0.015 |
| CO[C@]1(c2ncc(F)cc2-c2ccns2)C=C(C#N)C(=O)C(C)(C)C1 [Compound 80, (S)-3-(5-fluoro-3-isothiazol-5-yl-2-pyridyl)-3-methoxy-5,5-dimethyl-6-oxo-cyclohexene-1-carbonitrile] | 0.002 |
| COC1(c2ncc(F)cc2-c2cncc(S(C)(=O)=O)c2)C=C(C#N)C(=O)C(C)(C)C1 (stereo not drawn) [Compound 96, 3-(5-fluoro-5′-(methylsulfonyl)-[3,3′-bipyridin]-2-yl)-3-methoxy-5,5-dimethyl-6-oxocyclohex-1-ene-1-carbonitrile] | 0.007 |
| COC1(c2ncccc2Br)CC(C)(C)C(=O)C(C#N)=C1C (stereo not drawn) [Compound 108, 3-(3-bromo-2-pyridyl)-3-methoxy-2,5,5-trimethyl-6-oxo-cyclohexene-1-carbonitrile] | 1.9 |
| COC1(c2cccc(N3CCOCC3)n2)C=C(C#N)C(=O)C(C)(C)C1 (stereo not drawn) [Compound 110, 3-methoxy-5,5-dimethyl-3-[6-(morpholin-4-yl)pyridin-2-yl]-6-oxocyclohex-1-ene-1-carbonitrile] | 0.109 |
| COC1(c2cccc(-c3cnn(C)c3)n2)C=C(C#N)C(=O)C(C)(C)C1 (stereo not drawn) [Compound 111, 3-methoxy-5,5-dimethyl-3-[6-(1-methyl-1H-pyrazol-4-yl)pyridin-2-yl]-6-oxocyclohex-1-ene-1-carbonitrile] | 0.065 |
| COC1(c2ccc(Br)cn2)C=C(C#N)C(=O)C(C)(C)C1 (stereo not drawn) [Compound 113, 3-(5-bromopyridin-2-yl)-3-methoxy-5,5-dimethyl-6-oxocyclohex-1-ene-1-carbonitrile] | 0.343 |
| COC1(c2ccc(-c3cnn(C)c3)cn2)C=C(C#N)C(=O)C(C)(C)C1 (stereo not drawn) [Compound 115, 3-methoxy-5,5-dimethyl-3-[5-(1-methyl-1H-pyrazol-4-yl)pyridin-2-yl]-6-oxocyclohex-1-ene-1-carbonitrile] | 0.106 |
| COC1(c2cccc(-c3cncnc3)n2)C=C(C#N)C(=O)C(C)(C)C1 (stereo not drawn) [Compound 117, 3-methoxy-5,5-dimethyl-6-oxo-3-[6-(pyrimidin-5-yl)pyridin-2-yl]cyclohex-1-ene-1-carbonitrile] | 0.034 |
| COC1(c2ccc(F)cn2)C=C(C#N)C(=O)C(C)(C)C1 (stereo not drawn) [Compound 123, 3-(5-fluoropyridin-2-yl)-3-methoxy-5,5-dimethyl-6-oxocyclohex-1-ene-1-carbonitrile] | 0.061 |
| COC1(c2ncccc2C(F)F)C=C(C#N)C(=O)C(C)(C)C1 (stereo not drawn) [Compound 124, 3-[3-(difluoromethyl)pyridin-2-yl]-3-methoxy-5,5-dimethyl-6-oxocyclohex-1-ene-1-carbonitrile] | 0.027 |
| COC1(c2cccc(-c3cnn(C)c3)n2)C=C(C#N)C(=O)C2(CC2)C1 (stereo not drawn) [Compound 126, 7-methoxy-7-[6-(1-methyl-1H-pyrazol-4-yl)pyridin-2-yl]-4-oxospiro[2.5]oct-5-ene-5-carbonitrile] | 0.085 |
| COC1(c2cccc(-c3cncnc3)n2)C=C(C#N)C(=O)C2(CC2)C1 (stereo not drawn) [Compound 127, 7-methoxy-4-oxo-7-[6-(pyrimidin-5-yl)pyridin-2-yl]spiro[2.5]oct-5-ene-5-carbonitrile] | 0.267 |
| COC1(c2cccc(-c3cnc(C)nc3)n2)C=C(C#N)C(=O)C2(CC2)C1 (stereo not drawn) [Compound 128, 7-methoxy-7-[6-(2-methylpyrimidin-5-yl)pyridin-2-yl]-4-oxospiro[2.5]oct-5-ene-5-carbonitrile] | 0.145 |
| COC1(c2cccc(-c3ccnn3C)n2)C=C(C#N)C(=O)C2(CC2)C1 (stereo not drawn) [Compound 129, 7-methoxy-7-[6-(1-methyl-1H-pyrazol-5-yl)pyridin-2-yl]-4-oxospiro[2.5]oct-5-ene-5-carbonitrile] | 0.136 |
| COC1(c2cccc(-c3c(C)noc3C)n2)C=C(C#N)C(=O)C2(CC2)C1 (stereo not drawn) [Compound 130, 7-[6-(3,5-dimethyl-1,2-oxazol-4-yl)pyridin-2-yl]-7-methoxy-4-oxospiro[2.5]oct-5-ene-5-carbonitrile] | 0.153 |

The remaining lines, values ahead:

| EC50 [µM] | Compound |
| --- | --- |
| 0.091 | COC1(c2ccc(C)nc2C)C=C(C#N)C(=O)C(C)(C)C1 (stereo not drawn) [Compound 29, 3-(2,6-dimethylpyridin-3-yl)-3-methoxy-5,5-dimethyl-6-oxocyclohex-1-enecarbonitrile] |
| 0.458 | COC1(c2cncc(C)n2)C=C(C#N)C(=O)C(C)(C)C1 (stereo not drawn) [Compound 30, 3-methoxy-5,5-dimethyl-3-(6-methylpyrazin-2-yl)-6-oxocyclohex-1-enecarbonitrile] |
| 0.038 | CO[C@]1(c2ncc(C)s2)C=C(C#N)C(=O)C(C)(C)C1 [Compound 40, (S)-3-methoxy-5,5-dimethyl-3-(5-methylthiazol-2-yl)-6-oxocyclohex-1-enecarbonitrile] |
| 0.304 | COC1(c2sc(C)nc2C)C=C(C#N)C(=O)C(C)(C)C1 (stereo not drawn) [Compound 46, 3-(2,4-dimethylthiazol-5-yl)-3-methoxy-5,5-dimethyl-6-oxocyclohex-1-enecarbonitrile] |
| 0.014 | CO[C@]1(c2ncccc2C(F)F)C=C(C#N)C(=O)C2(CC2)C1 [Compound 55, (S)-7-[3-(difluoromethyl)pyridin-2-yl]-7-methoxy-4-oxospiro[2.5]oct-5-ene-5-carbonitrile] |
| 0.077 | CC#Cc1cccc(C2(OC)C=C(C#N)C(=O)C(C)(C)C2)n1 (stereo not drawn) [Compound 103, 3-Methoxy-5,5-dimethyl-6-oxo-3-(6-(prop-1-ynyl)pyridin-2-yl)cyclohex-1-enecarbonitrile] |
| 0.036 | COC1(c2cccc(-c3c(C)noc3C)n2)C=C(C#N)C(=O)C(C)(C)C1 (stereo not drawn) [Compound 105, 3-(6-(3,5-dimethylisoxazol-4-yl)pyridin-2-yl)-3-methoxy-5,5-dimethyl-6-oxocyclohex-1-ene-1-carbonitrile] |
| 0.12 | COC1(c2cccc(-c3ccnn3C)n2)C=C(C#N)C(=O)C(C)(C)C1 (stereo not drawn) [Compound 106, 3-methoxy-5,5-dimethyl-3-(6-(1-methyl-1H-pyrazol-5-yl)pyridin-2-yl)-6-oxocyclohex-1-ene-1-carbonitrile] |
| 0.185 | COC1(c2cccc(C3CC3)n2)C=C(C#N)C(=O)C(C)(C)C1 (stereo not drawn) [Compound 109, 3-(6-cyclopropylpyridin-2-yl)-3-methoxy-5,5-dimethyl-6-oxocyclohex-1-ene-1-carbonitrile] |
| 0.371 | COC1(c2cc(-c3cnn(C)c3)ccn2)C=C(C#N)C(=O)C(C)(C)C1 (stereo not drawn) [Compound 112, 3-methoxy-5,5-dimethyl-3-[4-(1-methyl-1H-pyrazol-4-yl)pyridin-2-yl]-6-oxocyclohex-1-ene-1-carbonitrile] |
| 0.235 | COC1(c2ncccc2Cl)C=C(C#N)C(=O)C(C)(C)C1 (stereo not drawn) [Compound 114, 3-(3-chloropyridin-2-yl)-3-methoxy-5,5-dimethyl-6-oxocyclohex-1-ene-1-carbonitrile] |
| 0.382 | COC1(c2cccc(-c3cccnc3)n2)C=C(C#N)C(=O)C(C)(C)C1 (stereo not drawn) [Compound 116, 3-([2,3′-bipyridin]-6-yl)-3-methoxy-5,5-dimethyl-6-oxocyclohex-1-ene-1-carbonitrile] |
| 0.355 | COC1(c2cccc(-c3ccccc3F)n2)C=C(C#N)C(=O)C(C)(C)C1 (stereo not drawn) [Compound 118, 3-[6-(2-fluorophenyl)pyridin-2-yl)-3-methoxy-5,5-dimethyl-6-oxocyclohex-1-ene-1-carbonitrile] |
| 0.141 | COc1ccccc1-c1cccc(C2(OC)C=C(C#N)C(=O)C(C)(C)C2)n1 (stereo not drawn) [Compound 119, 3-methoxy-3-[6-(2-methoxyphenyl)pyridin-2-yl]-5,5-dimethyl-6-oxocyclohex-1-ene-1-carbonitrile] |
| 0.245 | COc1ccccc1-c1cccc(C2(OC)C=C(C#N)C(=O)C(C)(C)C2)n1 (stereo not drawn) [Compound 120, 3-methoxy-3-[6-(2-methoxyphenyl)pyridin-2-yl]-5,5-dimethyl-6-oxocyclohex-1-ene-1-carbonitrile] |
| 0.043 | COC1(c2ncccc2C(F)(F)F)C=C(C#N)C(=O)C(C)(C)C1 (stereo not drawn) [Compound 122, 3-methoxy-5,5-dimethyl-6-oxo-3-[3-(trifluoromethyl)pyridin-2-yl]cyclohex-1-ene-1-carbonitrile] |
| 0.236 | COC1(c2cccc(-c3nccs3)n2)C=C(C#N)C(=O)C(C)(C)C1 (stereo not drawn) [Compound 125, 3-methoxy-5,5-dimethyl-6-oxo-3-[6-(1,3-thiazol-2-yl)pyridin-2-yl]cyclohex-1-ene-1-carbonitrile] |
